Assay results: publication PMC10780165 (Molecules, 2023)
Structures can show the parent of a compound that is named as a salt. Where two headings read alike, the source gives them in different places. Marks after values point to notes of the source that are not given here.

What was measured:
[1] = target: T1, elAChE (electric eel AChE) (Electrophorus electricus, UniProt O42275); experiment: biochemical
T1 construct: purchased Sigma-Aldrich (Shanghai, PRC)
Method: (§1) The inhibitory activities of the synthesized compounds on ChEs were evaluated utilizing elAChE and eqBChE.
(§2) The ChE inhibition abilities of the compounds were determined using a modified version of Ellman’s assay. All the experiments were conducted in 96-well plates, and the readings were obtained using an EnSpire Multimode 2300 plate reader (Perkin Elmer, MA, USA) or a multimode microplate reader (Berthold Technologies). elAChE, eqBChE, S-acetylthiocholine iodide (ATCh), S-butyrylthiocholine iodide (BTCh) and 5-5′-dithiobis (2-nitrobenzoic) acid (DTNB) were purchased from Sigma-Aldrich (Shanghai, PRC). ATCh and BTCh stock solutions were freshly prepared in water. A stock solution of DTNB (Ellman’s reagent) was prepared fresh in a sodium phosphate buffer (100 mM, pH 7, 0.15% NaHCO3 w/v). Stock solutions of drugs were prepared in a solution of acetonitrile and water (v:v = 1:9). The pH for the measurements was 8.
(§3) First, 25 μL aliquots of drug solutions at different concentrations were added to 200 μL of elAChE (0.04 U/mL) or eqBChE (0.1 U/mL) in a phosphate buffer (100 mM sodium phosphate buffer, pH 8), and the reaction system was pre-incubated at 37 °C for determined time periods. Then, 25 μL of a solution containing ATCh or BTCh (2.5 mM) and DTNB (3.4 mM) in the 100 mM sodium phosphate buffer was added to the reactions. Enzyme activity (vi) was determined by measuring the absorbance (412 nm) at 37 °C for 5 min. […] A sample containing phosphate buffer (pH 8) in place of the enzyme was analyzed for each drug concentration to account for the spontaneous conversion of the substrate into a product, and the values obtained were subtracted from each measured activity.
(§4) This method was based on the general measurement of ChE activity. […] The measurements were repeated three times for each concentration.

[2] = target: T2, eqBChE (equine serum BChE) (Equus caballus, UniProt P81908); experiment: Modified Ellman's assay, IC50 for eqBChE; format: biochemical; conditions: for fold less effective eqBChE inhibitor than the meta-position derivative: para- vs meta-position carbamate: MTR-13 vs MTR-1, MTR-14 vs MTR-2, MTR-15 vs MTR-3
T2 construct: BChE (equine serum BChE (eqBChE)); purchased Sigma-Aldrich (Shanghai, PRC); host or cells: equine serum
T2 sequence (P81908 whole entry): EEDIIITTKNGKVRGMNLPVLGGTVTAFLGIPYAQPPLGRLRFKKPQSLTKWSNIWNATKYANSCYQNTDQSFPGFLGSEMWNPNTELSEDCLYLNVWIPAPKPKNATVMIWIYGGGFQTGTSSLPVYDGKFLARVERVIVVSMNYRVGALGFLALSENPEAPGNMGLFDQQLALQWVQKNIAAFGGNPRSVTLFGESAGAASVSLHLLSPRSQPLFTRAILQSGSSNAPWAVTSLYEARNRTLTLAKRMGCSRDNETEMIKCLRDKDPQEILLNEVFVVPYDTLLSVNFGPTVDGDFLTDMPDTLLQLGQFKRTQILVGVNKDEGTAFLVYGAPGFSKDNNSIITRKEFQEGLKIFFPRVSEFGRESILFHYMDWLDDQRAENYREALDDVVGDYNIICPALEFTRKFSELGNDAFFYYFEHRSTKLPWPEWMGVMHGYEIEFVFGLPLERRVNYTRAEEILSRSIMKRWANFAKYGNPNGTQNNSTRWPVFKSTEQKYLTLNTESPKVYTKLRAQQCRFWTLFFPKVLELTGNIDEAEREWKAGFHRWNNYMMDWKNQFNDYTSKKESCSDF
Method: as §1, §2, §3, §4

eqBChE [3] = target: T3, eqBChE (Equus caballus, UniProt P81908); experiment: Kinetic study of eqBChE inhibition, carbamylation rate constant kI; format: biochemical, equine; conditions: pre-incubation 1-45 min, seven concentrations, read-out: kI, second-order carbamylation rate constant, Mean ± SD (converted)
T3 construct: BChE (equine serum BChE (eqBChE)); purchased Sigma-Aldrich (Shanghai, PRC); host or cells: equine serum
T3 sequence (P81908 whole entry): as above
Method: as §3

eqBChE [4] = target: T3, eqBChE; experiment: Decarbamylation rate constant k3 of carbamylated eqBChE; format: biochemical, equine
eqBChE [5] = target: T3, eqBChE; conditions: same conditions, cited from earlier work
eqBChE [6] = target: T3, eqBChE; conditions: same conditions, cited from earlier work; remark: listed apart in the source
AChE = conditions: cited from earlier work
BChE = conditions: cited from earlier work
[7] = target: T1, elAChE (electric eel AChE); conditions: after pre-incubation with the enzyme for 60 min; read-out: elAChE IC50 Mean ± SD; cited from earlier work
[8] = after pre-incubation with the enzyme for 60 min, 37 °C, pH 8, read-out: elAChE IC50 Mean ± SD
[9] = after pre-incubation with the enzyme for 60 min, 37 °C, pH 8, read-out: eqBChE IC50 Mean ± SD
[10] = elAChE IC50 Mean ± SD, after pre-incubation with the enzyme for 60 min, 37 °C, pH 8

T1 sequence (O42275 24-633): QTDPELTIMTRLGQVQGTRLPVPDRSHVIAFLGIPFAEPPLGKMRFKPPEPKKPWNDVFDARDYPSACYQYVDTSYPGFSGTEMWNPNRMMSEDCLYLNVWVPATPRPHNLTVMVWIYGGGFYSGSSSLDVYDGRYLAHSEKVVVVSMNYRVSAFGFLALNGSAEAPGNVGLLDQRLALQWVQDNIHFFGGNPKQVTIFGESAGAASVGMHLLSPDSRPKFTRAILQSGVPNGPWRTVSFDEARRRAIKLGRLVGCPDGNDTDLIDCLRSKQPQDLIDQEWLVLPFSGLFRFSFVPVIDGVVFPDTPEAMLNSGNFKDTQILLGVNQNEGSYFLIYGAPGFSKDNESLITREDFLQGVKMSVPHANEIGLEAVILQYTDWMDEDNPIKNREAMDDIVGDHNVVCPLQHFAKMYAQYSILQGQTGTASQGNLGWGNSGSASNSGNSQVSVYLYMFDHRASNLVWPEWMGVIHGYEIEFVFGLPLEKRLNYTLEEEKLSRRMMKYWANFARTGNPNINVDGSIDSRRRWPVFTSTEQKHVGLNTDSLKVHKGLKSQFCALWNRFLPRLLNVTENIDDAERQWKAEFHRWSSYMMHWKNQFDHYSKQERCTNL

Q: What does the source list for `CCN(C)C(=O)Oc1ccc(C(O)CNC(C)(C)CC)cc1` (stereo not shown) [MTR-14, 4-(1-Hydroxy-2-(tert-pentylamino)ethyl)phenyl Ethyl(methyl)carbamate]?
A: IC50 [1, 8]: > 100000 nM; IC50 [2, 9]: 1700 ± 100 nM; fold less effective eqBChE inhibitor than the meta-position derivative [2]: ninefold

Q: With `CCN(C)C(=O)Oc1cccc(C(O)CNc2ccc(F)cc2)c1` (stereo not shown) [MTR-10, 3-(2-((4-Fluorophenyl)amino)-1-hydroxyethyl)phenyl Ethyl(methyl)carbamate] as the molecule, how does the IC50 [1, 8] read?
A: Its IC50 is over 100000 nM.

Q: What about the IC50 [2, 9] of the same molecule?
A: The IC50 was 192 ± 7 nM.

Q: With `CCN(C)C(=O)Oc1cccc(C(O)CNC2CCCC2)c1` (stereo not shown) [MTR-5, 3-(2-(Cyclopentylamino)-1-hydroxyethyl)phenyl Ethyl(methyl)carbamate] as the molecule, how does the IC50 [1, 8] read?
A: The IC50 was 92000 ± 7000 nM.

Q: What about the IC50 [2, 9] of the same molecule?
A: The IC50 was 74 ± 5 nM.

Q: With `CCN(C)C(=O)Oc1ccc(C(O)CNC(C)(C)C)cc1` (stereo not shown) [MTR-13, 4-(2-(Tert-butylamino)-1-hydroxyethyl)phenyl Ethyl(methyl)carbamate] as the molecule, how does the IC50 [1, 8] read?
A: Its IC50 is over 100000 nM.

Q: What about the IC50 [2, 9] of the same molecule?
A: Its IC50 is 8700 ± 300 nM.

Q: And the “fold less effective eqBChE inhibitor than the meta-position derivative” value [2]?
A: The value was 22 fold.

Q: For `CCN(C)C(=O)Oc1cccc(C(O)CNC(C)(C)c2ccccc2)c1` (stereo not shown) [MTR-11, 3-(1-Hydroxy-2-((2-phenylpropan-2-yl)amino)ethyl)phenyl Ethyl(methyl)carbamate], which IC50 [1, 8] is on record?
A: The IC50 was over 100000 nM.

Q: What about the IC50 [2, 9] of the same molecule?
A: The IC50 was 323 ± 8 nM.

Q: For `CCN(C)C(=O)Oc1cccc(C(O)CN2CCCCC2)c1` (stereo not shown) [MTR-3, 3-(1-Hydroxy-2-(piperidin-1-yl)ethyl)phenyl Ethyl(methyl)carbamate], which kinact/KI (eqBChE [3]) is on record?
A: Its kinact/KI is 4630 M⁻¹ s⁻¹.

Q: And the IC50 [1, 8]?
A: The IC50 was over 100000 nM.

Q: What about the IC50 ([1]; read-out: IC50(AChE)) of the same molecule?
A: Its IC50 is over 100000 nM.

Q: And the “nature of BChE inhibition” value (eqBChE [4]; activity recovery after dilution)?
A: The value was “pseudo-irreversible”.

Q: And the “k3, decarbamylation rate constant, Mean ± SD” value (eqBChE [4]; eqBChE, N-methyl-N-ethyl-carbamylated, dilution 1:300, 37 °C, pH 8)?
A: Its value is 0.0093 ± 0.0010 h⁻¹.

Q: What about the IC50 ([2]; as printed in nM in abstract and text, read-out: IC50(BChE)) of the same molecule?
A: Its IC50 is 78 nM.

Q: With `CCN(C)C(=O)Oc1cccc(C(O)CNC2CCCCC2)c1` (stereo not shown) [MTR-4, 3-(2-(Cyclohexylamino)-1-hydroxyethyl)phenyl Ethyl(methyl)carbamate] as the molecule, how does the IC50 [1, 8] read?
A: The IC50 was 79000 ± 4000 nM.

Q: What about the IC50 [2, 9] of the same molecule?
A: The IC50 was 9 ± 0.4 nM.

Q: Which results are given for `CCN(C)C(=O)Oc1cccc(C(O)CN2CCCC2)c1` (stereo not shown) [MTR-7, 3-(1-Hydroxy-2-(pyrrolidin-1-yl)ethyl)phenyl Ethyl(methyl)carbamate]?
A: IC50 [1, 8]: 78900 ± 900 nM; IC50 [2, 9]: 210 ± 10 nM

Q: For `CCN(C)C(=O)Oc1cccc(C(O)CNC(C)(C)CC)c1` (stereo not shown) [MTR-2, 3-(1-Hydroxy-2-(tert-pentylamino)ethyl)phenyl Ethyl(methyl)carbamate hydrochloride], which IC50 [1, 10] is on record?
A: Its IC50 is over 100000 nM.

Q: What about the IC50 [2, 9] of the same molecule?
A: The IC50 was 170 ± 10 nM.

Q: What does the source list for `CCN(C)C(=O)Oc1ccc(C(O)CN2CCCCC2)cc1` (stereo not shown) [MTR-15, 4-(1-Hydroxy-2-(piperidin-1-yl)ethyl)phenyl Ethyl(methyl)carbamate]?
A: IC50 [1, 8]: 59000 ± 16000 nM; IC50 [2, 9]: 420 ± 20 nM

Q: Which IC50 [1, 8] does the source give for `CCN(C)C(=O)Oc1cccc(C(O)CNc2ccc(I)cc2)c1` (stereo not shown) [MTR-9, 3-(1-Hydroxy-2-((4-iodophenyl)amino)ethyl)phenyl Ethyl(methyl)carbamate] here?
A: The IC50 was over 100000 nM.

Q: What about the IC50 [2, 9] of the same molecule?
A: Its IC50 is 1730 ± 50 nM.

Q: For `CCN(C)C(=O)Oc1cccc(C(O)CNC(C)(C)C)c1` (stereo not shown) [MTR-1, 3-(2-(Tert-butylamino)-1-hydroxyethyl)phenyl ethyl(methyl)carbamate Hydrochloride], which IC50 [1, 10] is on record?
A: The IC50 was over 100000 nM.

Q: What about the IC50 [2, 9] of the same molecule?
A: The IC50 was 370 ± 20 nM.

Q: What does the source list for `CN(C)C(=O)Oc1cc(OC(=O)N(C)C)cc(C(O)CNC(C)(C)C)c1` (stereo not shown) [Bambuterol]?
A: kI (kI1), carbamylation rate constant, Mean ± SD (eqBChE [5]; listed as bambuterol): 1.44 ± 0.02 ×10^5 M^−1 min^−1; kI (kI1), carbamylation rate constant, Mean ± SD (eqBChE [5]): 1.44 ± 0.02 ^a ×10^5 M^−1 min^−1; k3, decarbamylation rate constant, Mean ± SD (eqBChE [6]; listed as bambuterol): 0.0839 ± 0.0028 h⁻¹; k3, decarbamylation rate constant, Mean ± SD (eqBChE [6]): 0.0839 ± 0.0028 ^a ×h^−1; IC50 (AChE): 30000 nM; IC50 (BChE): 3 nM; IC50 [7]: > 100000 nM

Q: Which IC50 [1, 8] does the source give for `CCN(C)C(=O)Oc1cccc(C(O)CN2CCOCC2)c1` (stereo not shown) [MTR-6, 3-(1-Hydroxy-2-morpholinoethyl)phenyl Ethyl(methyl)carbamate] here?
A: Its IC50 is over 100000 nM.

Q: And the IC50 [2, 9]?
A: The IC50 was 2500 ± 200 nM.

Q: With `CCN(C)C(=O)Oc1cccc(C(O)CNc2ccccc2)c1` (stereo not shown) [MTR-8, 3-(1-Hydroxy-2-(phenylamino)ethyl)phenyl Ethyl(methyl)carbamate] as the molecule, how does the IC50 [1, 8] read?
A: The IC50 was over 100000 nM.

Q: What about the IC50 [2, 9] of the same molecule?
A: Its IC50 is 320 ± 20 nM.

Q: With `C#Cc1cccc(NCC(O)c2cccc(OC(=O)N(C)CC)c2)c1` (stereo not shown) [MTR-12, 3-(2-((3-Ethynylphenyl)amino)-1-hydroxyethyl)phenyl Ethyl(methyl)carbamate] as the molecule, how does the IC50 [1, 8] read?
A: Its IC50 is over 100000 nM.

Q: And the IC50 [2, 9]?
A: The IC50 was 156 ± 7 nM.
